Assay results reported in US7316814B2, “Cosmetic composition comprising a silicone-containing compound and a fatty acid ester” (L'Oreal, priority 1995, dated 2008).

assay: Maximum mass content of ester added to a gum-in-silicone-oil solution without precipitation of the gum; assay type: physicochemical; settings: 25° C.; 13% gum solution in polydimethylsiloxane (Q2-1403)
Protocol: The maximum mass content of ester which may be added, at 25° C., to a solution of gum in a silicone oil without observing precipitation of the gum was measured.

Maximum mass content of ester which may be added without observing precipitation of the gum | Compound
to at least 1000% | Octyldodecyl neopentanoate
60% | CC(C)CCCCCCCCCCCCCCCOC(=O)CCCCCC(C)C [Isostearyl isononanoate]
68% | CC(C)CCCCCCCCCCCCCCCOC(=O)C(C)(C)C [Isostearyl neopentanoate]
72% | CCCCCCCCC(CCCCCC)COC(=O)CCCCCC(C)C (stereo not shown) [2-hexyldecyl isononanoate]
